System: Triticum aestivium (TRZAW)
Assay: Post-emergence herbicidal activity, glasshouse pot test
Assay type: in vivo
Parameters: key: 5=total damage to plant; 0=no damage to plant
Conditions: Rate 1000 g/ha; sprayed after 8 days cultivation; evaluated after 13 days
Procedure: (§1) Seeds of a variety of test species were sown in standard soil in pots: Triticum aestivium (TRZAW), Avena fatua (AVEFA), Alopecurus myosuroides (ALOMY), Echinochloa crus-galli (ECHCG), Lolium perenne (LOLPE), and Setaria faberi (SETFA). After 8 days cultivation (post-emergence) under controlled conditions in a glasshouse (at 24/16° C., day/night; 14 hours light; 65% humidity), the plants were sprayed with an aqueous spray solution derived from the formulation of the technical active ingredient in acetone/water (50:50) solution containing 0.5% Tween 20 (polyoxyethelyene sorbitan monolaurate, CAS RN 9005-64-5). The test plants were then grown in a glasshouse under controlled conditions (at 24/16° C., day/night; 14 hours light; 65% humidity) and watered twice daily. After 13 days, the test was evaluated (5=total damage to plant; 0=no damage to plant).

| Structure (SMILES) | Control of weed species after post-emergence application, TRAZW (damage score 0-5) |
| --- | --- |
| CC(C)(C)OC(=O)N(C(=O)OC(C)(C)C)c1ncc(-c2cncc(F)c2)nc1C1CC1 [Compound H12] | 0 |
| CC(C)c1nc(-c2cncc(F)c2)cnc1N(C(=O)OC(C)(C)C)C(=O)OC(C)(C)C [Compound H13] | 1 |
| CC(C)=Cc1nc(-c2cncc(F)c2)cnc1N(C(=O)OC(C)(C)C)C(=O)OC(C)(C)C [Compound H14] | 0 |
| CC(C)(C)OC(=O)N(C(=O)OC(C)(C)C)c1ncc(-c2cncc(F)c2)nc1C1=CCCCC1 [Compound H15] | 0 |

System: Echinochloa crus-galli (ECHCG)
Assay: as above
Assay type: in vivo
Parameters: key: 5=total damage to plant; 0=no damage to plant
Conditions: Rate 1000 g/ha; sprayed after 8 days cultivation; evaluated after 13 days
Procedure: as §1

| Structure (SMILES) | Control of weed species after post-emergence application, ECHCG (damage score 0-5) |
| --- | --- |
| CC(C)(C)OC(=O)N(C(=O)OC(C)(C)C)c1ncc(-c2cncc(F)c2)nc1C1CC1 [Compound H12] | 3 |
| CC(C)c1nc(-c2cncc(F)c2)cnc1N(C(=O)OC(C)(C)C)C(=O)OC(C)(C)C [Compound H13] | 2 |
| CC(C)=Cc1nc(-c2cncc(F)c2)cnc1N(C(=O)OC(C)(C)C)C(=O)OC(C)(C)C [Compound H14] | 2 |
| CC(C)(C)OC(=O)N(C(=O)OC(C)(C)C)c1ncc(-c2cncc(F)c2)nc1C1=CCCCC1 [Compound H15] | 0 |

System: Avena fatua (AVEFA)
Assay: as above
Assay type: in vivo
Parameters: key: 5=total damage to plant; 0=no damage to plant
Conditions: Rate 1000 g/ha; sprayed after 8 days cultivation; evaluated after 13 days
Procedure: as §1

| Structure (SMILES) | Control of weed species after post-emergence application, AVEFA (damage score 0-5) |
| --- | --- |
| CC(C)(C)OC(=O)N(C(=O)OC(C)(C)C)c1ncc(-c2cncc(F)c2)nc1C1CC1 [Compound H12] | 2 |
| CC(C)c1nc(-c2cncc(F)c2)cnc1N(C(=O)OC(C)(C)C)C(=O)OC(C)(C)C [Compound H13] | 1 |
| CC(C)=Cc1nc(-c2cncc(F)c2)cnc1N(C(=O)OC(C)(C)C)C(=O)OC(C)(C)C [Compound H14] | 1 |
| CC(C)(C)OC(=O)N(C(=O)OC(C)(C)C)c1ncc(-c2cncc(F)c2)nc1C1=CCCCC1 [Compound H15] | 1 |

System: Setaria faberi (SETFA)
Assay: as above
Assay type: in vivo
Parameters: key: 5=total damage to plant; 0=no damage to plant
Conditions: Rate 1000 g/ha; sprayed after 8 days cultivation; evaluated after 13 days
Procedure: as §1

| Structure (SMILES) | Control of weed species after post-emergence application, SETFA (damage score 0-5) |
| --- | --- |
| CC(C)(C)OC(=O)N(C(=O)OC(C)(C)C)c1ncc(-c2cncc(F)c2)nc1C1CC1 [Compound H12] | 5 |
| CC(C)c1nc(-c2cncc(F)c2)cnc1N(C(=O)OC(C)(C)C)C(=O)OC(C)(C)C [Compound H13] | 5 |
| CC(C)=Cc1nc(-c2cncc(F)c2)cnc1N(C(=O)OC(C)(C)C)C(=O)OC(C)(C)C [Compound H14] | 4 |
| CC(C)(C)OC(=O)N(C(=O)OC(C)(C)C)c1ncc(-c2cncc(F)c2)nc1C1=CCCCC1 [Compound H15] | 2 |

System: Lolium perenne (LOLPE)
Assay: as above
Assay type: in vivo
Parameters: key: 5=total damage to plant; 0=no damage to plant
Conditions: Rate 1000 g/ha; sprayed after 8 days cultivation; evaluated after 13 days
Procedure: as §1

| Structure (SMILES) | Control of weed species after post-emergence application, LOLPE (damage score 0-5) |
| --- | --- |
| CC(C)(C)OC(=O)N(C(=O)OC(C)(C)C)c1ncc(-c2cncc(F)c2)nc1C1CC1 [Compound H12] | 2 |
| CC(C)c1nc(-c2cncc(F)c2)cnc1N(C(=O)OC(C)(C)C)C(=O)OC(C)(C)C [Compound H13] | 1 |
| CC(C)=Cc1nc(-c2cncc(F)c2)cnc1N(C(=O)OC(C)(C)C)C(=O)OC(C)(C)C [Compound H14] | 1 |
| CC(C)(C)OC(=O)N(C(=O)OC(C)(C)C)c1ncc(-c2cncc(F)c2)nc1C1=CCCCC1 [Compound H15] | 0 |

System: Alopecurus myosuroides (ALOMY)
Assay: as above
Assay type: in vivo
Parameters: key: 5=total damage to plant; 0=no damage to plant
Conditions: Rate 1000 g/ha; sprayed after 8 days cultivation; evaluated after 13 days
Procedure: as §1

| Structure (SMILES) | Control of weed species after post-emergence application, ALOMY (damage score 0-5) |
| --- | --- |
| CC(C)(C)OC(=O)N(C(=O)OC(C)(C)C)c1ncc(-c2cncc(F)c2)nc1C1CC1 [Compound H12] | 0 |
| CC(C)c1nc(-c2cncc(F)c2)cnc1N(C(=O)OC(C)(C)C)C(=O)OC(C)(C)C [Compound H13] | 0 |
| CC(C)=Cc1nc(-c2cncc(F)c2)cnc1N(C(=O)OC(C)(C)C)C(=O)OC(C)(C)C [Compound H14] | 0 |
| CC(C)(C)OC(=O)N(C(=O)OC(C)(C)C)c1ncc(-c2cncc(F)c2)nc1C1=CCCCC1 [Compound H15] | 0 |

System: Triticum aestivium (TRZAW)
Assay: Pre-emergence herbicidal activity, glasshouse pot test
Assay type: in vivo
Parameters: key: 5=total damage to plant; 0=no damage to plant
Conditions: Rate 1000 g/ha; sprayed one day after sowing; evaluated after 13 days
Procedure: as §1, with “After” for “After 8 days”, “for one day (pre-emergence)” for “(post-emergence)”

| Structure (SMILES) | Control of weed species after pre-emergence application, TRAZW (damage score 0-5) |
| --- | --- |
| CC(C)(C)OC(=O)N(C(=O)OC(C)(C)C)c1ncc(-c2cncc(F)c2)nc1C1CC1 [Compound H12] | 0 |
| CC(C)c1nc(-c2cncc(F)c2)cnc1N(C(=O)OC(C)(C)C)C(=O)OC(C)(C)C [Compound H13] | 0 |
| CC(C)=Cc1nc(-c2cncc(F)c2)cnc1N(C(=O)OC(C)(C)C)C(=O)OC(C)(C)C [Compound H14] | 0 |
| CC(C)(C)OC(=O)N(C(=O)OC(C)(C)C)c1ncc(-c2cncc(F)c2)nc1C1=CCCCC1 [Compound H15] | 0 |

System: Echinochloa crus-galli (ECHCG)
Assay: as above
Assay type: in vivo
Parameters: key: 5=total damage to plant; 0=no damage to plant
Conditions: Rate 1000 g/ha; sprayed one day after sowing; evaluated after 13 days
Procedure: as §1, with “After” for “After 8 days”, “for one day (pre-emergence)” for “(post-emergence)”

| Structure (SMILES) | Control of weed species after pre-emergence application, ECHCG (damage score 0-5) |
| --- | --- |
| CC(C)(C)OC(=O)N(C(=O)OC(C)(C)C)c1ncc(-c2cncc(F)c2)nc1C1CC1 [Compound H12] | 1 |
| CC(C)c1nc(-c2cncc(F)c2)cnc1N(C(=O)OC(C)(C)C)C(=O)OC(C)(C)C [Compound H13] | 1 |
| CC(C)=Cc1nc(-c2cncc(F)c2)cnc1N(C(=O)OC(C)(C)C)C(=O)OC(C)(C)C [Compound H14] | 2 |
| CC(C)(C)OC(=O)N(C(=O)OC(C)(C)C)c1ncc(-c2cncc(F)c2)nc1C1=CCCCC1 [Compound H15] | 0 |

System: Avena fatua (AVEFA)
Assay: as above
Assay type: in vivo
Parameters: key: 5=total damage to plant; 0=no damage to plant
Conditions: Rate 1000 g/ha; sprayed one day after sowing; evaluated after 13 days
Procedure: as §1, with “After” for “After 8 days”, “for one day (pre-emergence)” for “(post-emergence)”

| Structure (SMILES) | Control of weed species after pre-emergence application, AVEFA (damage score 0-5) |
| --- | --- |
| CC(C)(C)OC(=O)N(C(=O)OC(C)(C)C)c1ncc(-c2cncc(F)c2)nc1C1CC1 [Compound H12] | 0 |
| CC(C)c1nc(-c2cncc(F)c2)cnc1N(C(=O)OC(C)(C)C)C(=O)OC(C)(C)C [Compound H13] | 0 |
| CC(C)=Cc1nc(-c2cncc(F)c2)cnc1N(C(=O)OC(C)(C)C)C(=O)OC(C)(C)C [Compound H14] | 0 |
| CC(C)(C)OC(=O)N(C(=O)OC(C)(C)C)c1ncc(-c2cncc(F)c2)nc1C1=CCCCC1 [Compound H15] | 0 |

System: Setaria faberi (SETFA)
Assay: as above
Assay type: in vivo
Parameters: key: 5=total damage to plant; 0=no damage to plant
Conditions: Rate 1000 g/ha; sprayed one day after sowing; evaluated after 13 days
Procedure: as §1, with “After” for “After 8 days”, “for one day (pre-emergence)” for “(post-emergence)”

| Structure (SMILES) | Control of weed species after pre-emergence application, SETFA (damage score 0-5) |
| --- | --- |
| CC(C)(C)OC(=O)N(C(=O)OC(C)(C)C)c1ncc(-c2cncc(F)c2)nc1C1CC1 [Compound H12] | 4 |
| CC(C)c1nc(-c2cncc(F)c2)cnc1N(C(=O)OC(C)(C)C)C(=O)OC(C)(C)C [Compound H13] | 4 |
| CC(C)=Cc1nc(-c2cncc(F)c2)cnc1N(C(=O)OC(C)(C)C)C(=O)OC(C)(C)C [Compound H14] | 3 |
| CC(C)(C)OC(=O)N(C(=O)OC(C)(C)C)c1ncc(-c2cncc(F)c2)nc1C1=CCCCC1 [Compound H15] | 0 |

System: Lolium perenne (LOLPE)
Assay: as above
Assay type: in vivo
Parameters: key: 5=total damage to plant; 0=no damage to plant
Conditions: Rate 1000 g/ha; sprayed one day after sowing; evaluated after 13 days
Procedure: as §1, with “After” for “After 8 days”, “for one day (pre-emergence)” for “(post-emergence)”

| Structure (SMILES) | Control of weed species after pre-emergence application, LOLPE (damage score 0-5) |
| --- | --- |
| CC(C)(C)OC(=O)N(C(=O)OC(C)(C)C)c1ncc(-c2cncc(F)c2)nc1C1CC1 [Compound H12] | 0 |
| CC(C)c1nc(-c2cncc(F)c2)cnc1N(C(=O)OC(C)(C)C)C(=O)OC(C)(C)C [Compound H13] | 0 |
| CC(C)=Cc1nc(-c2cncc(F)c2)cnc1N(C(=O)OC(C)(C)C)C(=O)OC(C)(C)C [Compound H14] | 2 |
| CC(C)(C)OC(=O)N(C(=O)OC(C)(C)C)c1ncc(-c2cncc(F)c2)nc1C1=CCCCC1 [Compound H15] | 0 |

System: Alopecurus myosuroides (ALOMY)
Assay: as above
Assay type: in vivo
Parameters: key: 5=total damage to plant; 0=no damage to plant
Conditions: Rate 1000 g/ha; sprayed one day after sowing; evaluated after 13 days
Procedure: as §1, with “After” for “After 8 days”, “for one day (pre-emergence)” for “(post-emergence)”

| Structure (SMILES) | Control of weed species after pre-emergence application, ALOMY (damage score 0-5) |
| --- | --- |
| CC(C)(C)OC(=O)N(C(=O)OC(C)(C)C)c1ncc(-c2cncc(F)c2)nc1C1CC1 [Compound H12] | 0 |
| CC(C)c1nc(-c2cncc(F)c2)cnc1N(C(=O)OC(C)(C)C)C(=O)OC(C)(C)C [Compound H13] | 0 |
| CC(C)=Cc1nc(-c2cncc(F)c2)cnc1N(C(=O)OC(C)(C)C)C(=O)OC(C)(C)C [Compound H14] | 0 |
| CC(C)(C)OC(=O)N(C(=O)OC(C)(C)C)c1ncc(-c2cncc(F)c2)nc1C1=CCCCC1 [Compound H15] | 0 |

Reference: patent publication US11434221B2, “Pyrazine-4-carbamate or -urea derivatives as herbicides” (Syngenta Participations AG, priority 2017, dated 2022)
